Assay results from patent US11873298B2, “Compounds and uses thereof” (JANSSEN PHARMACEUTICA NV, priority 2017, dated 2024).

Legend:
SCD1 = molecular target: T1, SCD1 (Homo sapiens, UniProt O00767); test: Growth inhibition of humanized yeast strain expressing SCD1 as sole desaturase; format: cell-based; conditions: humanized yeast strain expressing SCD1
T1 construct: host or cells: S. cerevisiae ole1Δ strain (W303 pdr1Δ pdr3Δ background), plasmid pRS316 with TDH3 promoter and CYC1 terminator
T1 sequence (O00767 1-359): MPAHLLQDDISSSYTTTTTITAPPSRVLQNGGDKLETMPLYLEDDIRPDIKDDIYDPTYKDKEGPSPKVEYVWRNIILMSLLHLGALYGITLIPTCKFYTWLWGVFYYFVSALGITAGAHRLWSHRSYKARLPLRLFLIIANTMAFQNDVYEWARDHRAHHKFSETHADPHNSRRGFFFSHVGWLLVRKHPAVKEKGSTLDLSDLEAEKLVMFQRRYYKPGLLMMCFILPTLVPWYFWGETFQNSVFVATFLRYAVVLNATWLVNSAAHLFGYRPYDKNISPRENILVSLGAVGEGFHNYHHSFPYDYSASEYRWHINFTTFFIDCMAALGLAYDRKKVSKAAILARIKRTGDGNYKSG
Outline: (§1)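 OD600 growth read-out. ole1Δ yeast, pdr1Δ pdr3Δ, with Ole1/SCD1/SCD5 on a plasmid; SX-Ura media throughout; 2× cell density 0.02 in CSM-Galactose; DMSO compound dilutions; humidified 30° C.; Ole1 stopped at 24 h, SCD1/SCD5 at 40 h.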

[1] = test system: yeast strains expressing the human α-synuclein; test: Yeast α-synuclein toxicity rescue assay (OD600 growth); conditions: 40 h; for EC50: read-out: α-Syn EC50; for Emax: read-out: α-Syn Emax
Ole1 = molecular target: T2, Ole1 (Saccharomyces cerevisiae, UniProt P21147); test: Growth inhibition of yeast strain expressing Ole1 as sole desaturase; format: cell-based; conditions: yeast strain expressing Ole1 as sole desaturase
T2 construct: expressed in transfected cells; host or cells: S. cerevisiae ole1Δ strain (W303 pdr1Δ pdr3Δ background), plasmid pRS316 with TDH3 promoter and CYC1 terminator
T2 sequence (P21147 1-510): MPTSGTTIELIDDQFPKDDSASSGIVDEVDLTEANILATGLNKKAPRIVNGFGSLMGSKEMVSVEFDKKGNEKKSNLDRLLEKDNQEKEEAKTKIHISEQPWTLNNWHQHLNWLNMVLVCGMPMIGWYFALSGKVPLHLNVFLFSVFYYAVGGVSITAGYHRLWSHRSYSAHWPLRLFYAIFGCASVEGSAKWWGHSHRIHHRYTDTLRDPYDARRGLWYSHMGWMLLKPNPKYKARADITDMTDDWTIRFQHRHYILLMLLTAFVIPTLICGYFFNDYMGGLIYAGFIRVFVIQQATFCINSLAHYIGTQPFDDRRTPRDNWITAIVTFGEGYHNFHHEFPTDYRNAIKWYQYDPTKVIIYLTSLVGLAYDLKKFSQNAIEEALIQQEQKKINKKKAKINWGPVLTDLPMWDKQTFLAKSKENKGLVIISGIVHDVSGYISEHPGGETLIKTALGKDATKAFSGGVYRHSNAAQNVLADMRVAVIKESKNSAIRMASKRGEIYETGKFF
Outline: as §1

SCD5 = molecular target: T3, SCD5 (Homo sapiens, UniProt Q86SK9); test: Growth inhibition of humanized yeast strain expressing SCD5 as sole desaturase; format: cell-based; conditions: humanized yeast strain expressing SCD5
T3 construct: host or cells: S. cerevisiae ole1Δ strain (W303 pdr1Δ pdr3Δ background), plasmid pRS316 with TDH3 promoter and CYC1 terminator
T3 sequence (Q86SK9 1-330): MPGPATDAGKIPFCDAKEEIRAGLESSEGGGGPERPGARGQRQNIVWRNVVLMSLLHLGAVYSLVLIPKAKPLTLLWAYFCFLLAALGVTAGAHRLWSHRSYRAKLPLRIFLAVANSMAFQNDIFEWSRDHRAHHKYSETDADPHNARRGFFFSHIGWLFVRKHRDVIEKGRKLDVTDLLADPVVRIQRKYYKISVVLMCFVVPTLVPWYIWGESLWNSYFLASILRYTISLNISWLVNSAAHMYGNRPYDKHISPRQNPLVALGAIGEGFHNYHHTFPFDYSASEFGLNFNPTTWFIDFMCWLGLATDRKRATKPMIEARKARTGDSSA
Outline: as §1

| SMILES | IC50 (SCD1) | SCD1 % Max Inhibition (SCD1) | EC50 [1] | Emax [1] | IC50 (Ole1) | OLE1 % Max Inhibition (Ole1) | IC50 (SCD5) | SCD5 % Max Inhibition (SCD5) |
| --- | --- | --- | --- | --- | --- | --- | --- | --- |
| Cc1nn(C)c2cc(-c3noc(N4CCN(C(=O)c5cc(-c6ccccc6)no5)CC4)n3)ccc12 [Compound 103] | > 45 µM | 93.33% | 2020 nM | 75% | > 45 µM | 5.27% | > 45 µM | 68.60% |
| O=C(NCC(=O)N1CCC(c2nc(-c3ccc4nsnc4c3)no2)CC1)c1ccccc1 [Compound 104] | > 45 µM | 76.89% | 1870 nM | 253% | > 45 µM | 110.40% | > 45 µM | 77.11% |
| Cc1nnc(C)c2cc(-c3noc(C4CCN(C(=O)CNC(=O)c5ccccc5)CC4)n3)ccc12 [Compound 105] | > 45 µM | 41.38% | 3180 nM | 391% | > 45 µM | 34.19% | > 45 µM | 13.93% |
| CCOc1ccc(-c2noc(C3CCN(C(=O)CN4Cc5ccccc5C4=O)CC3)n2)cc1OC [Compound 106] | > 45 µM | 78.19% | 100 nM | 415% | > 45 µM | 35.35% | > 45 µM | 71.22% |
| CCOc1ccc(-c2noc(C3CCN(C(=O)CNC(=O)c4ccccc4)CC3)n2)nc1OC [Compound 107] | > 45 µM | 73.32% | 2900 nM | 312% | > 45 µM | 4.55% | > 45 µM | 74.80% |
| CCOc1ccc(-c2noc(C3CCN(C(=O)C4CC(=O)N(c5ccccc5)C4)CC3)n2)nc1OC (stereo not shown) [Compound 108] | > 45 µM | 72.79% | 11100 nM | 316% | > 45 µM | 72.04% | > 45 µM | 64.66% |
| O=C(NCC(=O)N1CCC(c2nc(-c3ccc4c(c3)OC(F)(F)O4)no2)CC1)c1ccccc1 [Compound 109] | > 45 µM | 84.36% | 3040 nM | 35% | > 45 µM | 87.87% | > 45 µM | 89.75% |
| CCN1CCOc2cc(-c3noc(C4CCN(C(=O)CNC(=O)c5ccccc5)CC4)n3)ccc21 [Compound 110] | > 45 µM | 66.85% | 4490 nM | 374% | > 45 µM | 96.31% | > 45 µM | 65.07% |
| CCN1C(=O)COc2cc(-c3noc(C4CCN(C(=O)CNC(=O)c5ccccc5)CC4)n3)ccc21 [Compound 111] | > 45 µM | 76.39% | 339 nM | 289% | > 45 µM | 38.26% | > 45 µM | 32.73% |
| CCOc1ccc(-c2noc(N3CCC(C(=O)N4CCOC(c5ccccc5)C4)CC3)n2)cc1OC (stereo not shown) [Compound 112] | > 45 µM | 66.76% | 320 nM | 258% | > 45 µM | 3.16% | > 45 µM | 21.21% |
| CCOc1ccc(-c2noc(N3CCC(C(=O)N4CCN(C)C(c5ccccc5)C4)CC3)n2)cc1OC (stereo not shown) [Compound 113] | 40.7 µM | 55.33% | 15600 nM | 55% | > 45 µM | 5.55% | > 45 µM | 27.28% |
